According to patent US7994209B2, “3-phenoxymethylpyrrolidine compounds” (Theravance, Inc., priority 2009, dated 2011):

Experiments:
[1] = target: T1, hNET (Homo sapiens, UniProt P23975); experiment: hNET membrane radioligand binding assay (3H-nisoxetine), Assay 1
[2] = target: T1, hNET; experiment: hNET neurotransmitter uptake assay (3H-NE), Assay 2; format: cell-based; design: expressed in transfected cells; host or cells: HEK-293; settings: norepinephrine reuptake inhibition, 3H-NE uptake, HEK-293 hNET cells (values without asterisk); read-out: NET pIC50 (converted)
Procedure: (§1) Cells were harvested by centrifugation at 1100 rpm for 5 minutes, washed once by resuspension in PBS, then centrifuged. The supernatant was discarded and the cell pellet resuspended, by gentle trituration, in room temperature Krebs-Ringer bicarbonate buffer containing HEPES (10 mM), CaCl2 (2.2 mM), ascorbic acid (200 μM) and pargyline (200 μM), pH 7.4.
(§2) Test compounds were incubated for 30 minutes at 37° C. with the respective cells, prior to addition of radiolabeled neurotransmitter, ^3H-5-HT (20 nM final concentration), ^3H-NE (50 nM final concentration) or ^3H-DA (100 nM final concentration).

[3] = target: T2, hSERT (Homo sapiens, UniProt P31645); experiment: hSERT neurotransmitter uptake assay (3H-5-HT), Assay 2; format: cell-based; design: expressed in transfected cells; host or cells: HEK-293; settings: serotonin reuptake inhibition, 3H-5-HT uptake, HEK-293 hSERT cells (values without asterisk); read-out: SERT pIC50 (converted)
T2 sequence (P31645 whole entry): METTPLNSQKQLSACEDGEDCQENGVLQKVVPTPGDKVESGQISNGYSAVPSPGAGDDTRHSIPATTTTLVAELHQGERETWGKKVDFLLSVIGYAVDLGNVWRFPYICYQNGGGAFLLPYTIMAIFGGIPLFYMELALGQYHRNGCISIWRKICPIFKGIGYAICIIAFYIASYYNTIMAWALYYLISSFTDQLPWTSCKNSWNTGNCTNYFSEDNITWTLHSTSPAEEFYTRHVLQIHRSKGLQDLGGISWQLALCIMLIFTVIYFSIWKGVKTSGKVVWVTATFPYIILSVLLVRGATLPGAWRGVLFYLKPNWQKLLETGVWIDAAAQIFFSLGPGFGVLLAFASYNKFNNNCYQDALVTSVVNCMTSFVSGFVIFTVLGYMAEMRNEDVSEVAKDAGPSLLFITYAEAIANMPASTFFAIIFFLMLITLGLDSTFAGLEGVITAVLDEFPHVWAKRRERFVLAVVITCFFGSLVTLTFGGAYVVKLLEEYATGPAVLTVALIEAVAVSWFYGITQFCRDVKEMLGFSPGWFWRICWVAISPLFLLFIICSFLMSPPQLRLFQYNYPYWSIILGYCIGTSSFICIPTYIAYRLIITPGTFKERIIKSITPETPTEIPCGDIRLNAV
Procedure: as §1, §2

[4] = target: T2, hSERT; experiment: hSERT membrane radioligand binding assay (3H-citalopram), Assay 1; settings: SERT pKi, hSERT HEK-293 membranes, 1.0 nM 3H-citalopram; values given as lower bounds

T1 sequence (P23975 whole entry): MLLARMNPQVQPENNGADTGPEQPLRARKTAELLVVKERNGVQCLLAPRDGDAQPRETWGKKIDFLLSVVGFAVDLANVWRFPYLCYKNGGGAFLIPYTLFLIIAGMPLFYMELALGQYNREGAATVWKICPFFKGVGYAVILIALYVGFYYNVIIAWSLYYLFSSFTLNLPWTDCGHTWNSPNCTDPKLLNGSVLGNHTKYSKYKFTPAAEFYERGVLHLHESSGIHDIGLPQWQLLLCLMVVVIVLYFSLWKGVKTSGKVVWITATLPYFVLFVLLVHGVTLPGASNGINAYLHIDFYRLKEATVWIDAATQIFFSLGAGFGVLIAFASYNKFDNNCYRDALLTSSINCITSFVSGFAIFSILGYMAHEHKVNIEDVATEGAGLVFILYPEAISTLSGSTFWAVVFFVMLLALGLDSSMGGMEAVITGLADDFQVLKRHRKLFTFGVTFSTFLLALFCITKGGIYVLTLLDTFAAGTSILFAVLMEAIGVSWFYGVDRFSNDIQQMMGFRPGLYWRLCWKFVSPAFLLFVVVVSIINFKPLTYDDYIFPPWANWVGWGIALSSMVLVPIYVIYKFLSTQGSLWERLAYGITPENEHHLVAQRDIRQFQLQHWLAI

Row | Compound | Ki [1] | IC50 [2] | IC50 [3] | Ki [4]
1 | CC[C@H](Oc1ccc(Cl)c(F)c1Cl)[C@H]1CCNC1 [Example 2-42, (S)-3-[(S)-1-(2,4-Dichloro-3-fluorophenoxy)propyl]pyrrolidine] | ≤ 10 nM | ≤ 10 nM | ≤ 10 nM | ≤ 10 nM
2 | CC[C@H](Oc1c(C)cc(Cl)cc1Cl)[C@H]1CCNC1 [Example 2-43, (S)-3-[(S)-1-(2,4-Dichloro-6-methylphenoxy)propyl]pyrrolidine] | ≤ 10 nM | ≤ 10 nM | ≤ 100 nM | ≤ 10 nM
3 | CC[C@H](Oc1c(F)ccc(OC)c1Cl)[C@H]1CCNC1 [Example 2-44, (S)-3-[(S)-1-(2-Chloro-6-fluoro-3-methoxyphenoxy)propyl]pyrrolidine] | ≤ 10 nM | ≤ 10 nM | ≤ 10 nM | ≤ 10 nM
4 | CC[C@H](Oc1ccc(Cl)cc1F)[C@H]1CCNC1 [Example 2-47, (S)-3-[(S)-1-(4-Chloro-2-fluorophenoxy)propyl]pyrrolidine] | ≤ 10 nM | ≤ 10 nM | ≤ 100 nM | ≤ 10 nM
5 | CC[C@H](Oc1c(F)cc(Cl)cc1F)[C@H]1CCNC1 [Example 2-48, (S)-3-[(S)-1-(4-Chloro-2,6-difluorophenoxy)propyl]pyrrolidine] | ≤ 10 nM | ≤ 10 nM | ≤ 10 nM | ≤ 10 nM
6 | CC[C@H](Oc1c(F)ccc(Cl)c1F)[C@H]1CCNC1 [Example 2-52, (S)-3-[(S)-1-(3-Chloro-2,6-difluorophenoxy)propyl]pyrrolidine] | ≤ 10 nM | ≤ 10 nM | ≤ 100 nM | ≤ 10 nM
7 | CC[C@H](Oc1c(F)cc(F)cc1F)[C@H]1CCNC1 [Example 2-55, (S)-3-[(S)-1-(2,4,6-Trifluorophenoxy)propyl]pyrrolidine] | ≤ 10 nM | ≤ 10 nM | ≤ 100 nM | ≤ 10 nM
8 | CC[C@H](Oc1ccc(F)c(OC)c1F)[C@H]1CCNC1 [Example 2-57, (S)-3-[(S)-1-(2,4-Difluoro-3-methoxyphenoxy)propyl]pyrrolidine] | ≤ 100 nM | ≤ 100 nM | ≤ 100 nM | ≤ 10 nM
9 | CC[C@H](Oc1ccc(Cl)cc1C)[C@H]1CCNC1 [Example 2-58, (S)-3-[(S)-1-(4-Chloro-2-methylphenoxy)propyl]pyrrolidine] | ≤ 10 nM | ≤ 10 nM | ≤ 10 nM | ≤ 10 nM
10 | CC[C@@H](Oc1ccc(Cl)cc1C)[C@@H]1CCNC1 [Example 2-60, (R)-3-[(R)-1-(4-Chloro-2-methylphenoxy)propyl]pyrrolidine] | ≤ 100 nM | ≤ 100 nM | ≤ 100 nM | ≤ 10 nM
11 | CC[C@H](Oc1ccccc1C)[C@H]1CCNC1 [Example 2-62, (S)-3-((S)-1-o-Tolyloxypropyl)pyrrolidine] | ≤ 10 nM | ≤ 10 nM | ≤ 100 nM | ≤ 10 nM
12 | CCc1cc(F)ccc1O[C@@H](CC)[C@H]1CCNC1 [Example 2-66, (S)-3-[(S)-1-(2-Ethyl-4-fluorophenoxy)propyl]pyrrolidine] | ≤ 10 nM | ≤ 10 nM | ≤ 10 nM | ≤ 10 nM
13 | CC[C@H](Oc1ccc(Cl)cc1OC)[C@H]1CCNC1 [Example 2-68, (S)-3-[(S)-1-(4-Chloro-2-methoxyphenoxy)propyl]pyrrolidine] | ≤ 10 nM | ≤ 10 nM | ≤ 10 nM | ≤ 10 nM
14 | CC[C@H](Oc1ccc(F)cc1OC)[C@H]1CCNC1 [Example 2-69, (S)-3-[(S)-1-(4-Fluoro-2-methoxyphenoxy)propyl]pyrrolidine] | ≤ 10 nM | ≤ 100 nM | ≤ 100 nM | ≤ 100 nM
15 | CC[C@H](Oc1cc(F)c(Cl)cc1OC)[C@H]1CCNC1 [Example 2-70, (S)-3-[(S)-1-(4-Chloro-5-fluoro-2-methoxyphenoxy)propyl]pyrrolidine] | ≤ 10 nM | ≤ 10 nM | ≤ 100 nM | ≤ 10 nM
16 | CC[C@H](Oc1cccc(Cl)c1C(F)(F)F)[C@H]1CCNC1 [Example 2-71, (S)-3-[(S)-1-(3-Chloro-2-trifluoromethylphenoxy)propyl]pyrrolidine] | ≤ 10 nM | ≤ 10 nM | ≤ 100 nM | ≤ 10 nM
17 | CC[C@@H](Oc1cccc(Cl)c1C(F)(F)F)[C@@H]1CCNC1 [Example 2-72, (R)-3-[(R)-1-(3-Chloro-2-trifluoromethylphenoxy)propyl]pyrrolidine] | ≤ 10 nM | ≤ 100 nM | ≤ 100 nM | ≤ 10 nM
